Results from patent publication US20240208992A1, “MACROCYCLES AS CFTR MODULATORS” (Idorsia Pharmaceuticals Ltd, priority 2021, published 2024).

Biological target: human F508del-CFTR (Homo sapiens, UniProt P13569, DEL508-508)
Experiment: F508del-CFTR cell surface expression (corrector activity), DiscoveRx ß-galactosidase complementation chemiluminescence assay in recombinant U2OS cell line;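 further: U2OS cells co-expressing ProLink-tagged F508del-CFTR and a membrane-anchored enzyme acceptor, where more surface CFTR restores β-galactosidase activity measured by chemiluminescence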
Settings: for EC50: EC50, F508del-CFTR cell surface expression, U2OS cells, 16h compound incubation, geomean values; for Emax: U2OS, in relation to Emax of corrector lumacaftor (=100%), arithmetic mean values

Chain of human F508del-CFTR (P13569 with tags, fused parts or gaps DEL508-508): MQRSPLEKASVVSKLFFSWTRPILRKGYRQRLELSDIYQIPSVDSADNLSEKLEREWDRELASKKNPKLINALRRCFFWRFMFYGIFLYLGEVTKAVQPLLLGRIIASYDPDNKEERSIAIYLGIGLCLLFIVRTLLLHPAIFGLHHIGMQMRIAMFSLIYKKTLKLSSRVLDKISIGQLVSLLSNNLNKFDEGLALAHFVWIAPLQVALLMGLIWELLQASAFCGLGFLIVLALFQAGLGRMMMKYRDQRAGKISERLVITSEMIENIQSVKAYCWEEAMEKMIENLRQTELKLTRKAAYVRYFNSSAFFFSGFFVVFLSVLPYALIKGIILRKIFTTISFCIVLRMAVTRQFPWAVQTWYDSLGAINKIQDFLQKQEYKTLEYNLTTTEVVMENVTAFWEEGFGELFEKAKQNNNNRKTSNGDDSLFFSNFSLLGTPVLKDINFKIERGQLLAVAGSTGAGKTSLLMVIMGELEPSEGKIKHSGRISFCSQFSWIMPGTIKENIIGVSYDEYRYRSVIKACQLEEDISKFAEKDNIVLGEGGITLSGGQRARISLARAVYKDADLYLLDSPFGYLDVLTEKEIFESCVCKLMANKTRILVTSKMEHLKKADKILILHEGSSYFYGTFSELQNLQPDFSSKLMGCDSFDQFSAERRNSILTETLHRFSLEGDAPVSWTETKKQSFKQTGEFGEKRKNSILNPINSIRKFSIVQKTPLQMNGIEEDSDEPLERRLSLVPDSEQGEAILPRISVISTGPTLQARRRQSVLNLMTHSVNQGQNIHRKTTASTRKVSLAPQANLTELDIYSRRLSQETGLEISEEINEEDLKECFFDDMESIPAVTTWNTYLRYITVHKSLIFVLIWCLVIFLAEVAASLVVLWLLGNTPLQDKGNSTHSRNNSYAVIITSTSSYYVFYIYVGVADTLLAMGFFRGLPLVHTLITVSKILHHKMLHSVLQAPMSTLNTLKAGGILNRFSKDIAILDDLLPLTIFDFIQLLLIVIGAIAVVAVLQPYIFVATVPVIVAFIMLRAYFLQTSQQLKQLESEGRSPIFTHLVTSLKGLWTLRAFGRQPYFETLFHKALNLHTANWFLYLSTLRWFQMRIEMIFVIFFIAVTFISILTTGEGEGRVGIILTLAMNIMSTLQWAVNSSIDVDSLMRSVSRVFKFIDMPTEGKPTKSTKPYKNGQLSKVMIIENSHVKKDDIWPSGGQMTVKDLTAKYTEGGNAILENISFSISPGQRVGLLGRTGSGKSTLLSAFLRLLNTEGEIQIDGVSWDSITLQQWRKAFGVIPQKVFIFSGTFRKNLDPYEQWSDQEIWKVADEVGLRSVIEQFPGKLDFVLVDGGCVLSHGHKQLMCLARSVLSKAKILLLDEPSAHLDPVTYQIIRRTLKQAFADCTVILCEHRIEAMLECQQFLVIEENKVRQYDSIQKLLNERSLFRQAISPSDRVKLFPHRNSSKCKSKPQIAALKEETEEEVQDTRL

SMILES	EC50 [nM]	Emax [%]
Cc1cc(CCNC(=O)[C@@H]2CC(=O)N(C)[C@@H](CC(C)C)C(=O)N(C)[C@H](COCc3ccccc3)C(=O)N[C@H](Cc3ccccc3)COc3cnc4ccccc4c3C(=O)N2)on1 [Example 564, (3S,7S,10R,13R)-13-benzyl-10-((benzyloxy)methyl)-7-isobutyl-6,9-dimethyl-N-(2-(3-methylisoxazol-5-yl)ethyl)-1,5,8,11-tetraoxo-1,2,3,4,5,6,7,8,9,10,11,12,13,14-tetradecahydro-[1]oxa[4,7,10,14]tetraazacycloheptadecino[17,16-c]quinoline-3-carboxamide]	49	298
COc1nc(C)cc2c1C(=O)N[C@H](C(=O)NCCc1cc(C3CC3)on1)CC(=O)N(C)[C@@H](CC(C)C)C(=O)N1CCCC[C@@H]1C(=O)N[C@H](Cc1ccccc1)CO2 [Example 565, (7S,11S,17aR,20R)-20-benzyl-N-(2-(5-cyclopropylisoxazol-3-yl)ethyl)-11-isobutyl-4-methoxy-2,10-dimethyl-5,9,12,18-tetraoxo-5,6,7,8,9,10,11,12,15,16,17,17a,18,19,20,21-hexadecahydro-14H-dipyrido[2,1-f:3′,4′-p][1]oxa[4,7,10,14]tetraazacycloheptadecine-7-carboxamide]	338	254
COc1nc(C)cc2c1C(=O)N[C@H](C(=O)NCCc1noc(C3CC3)n1)CC(=O)N(C)[C@@H](CC(C)C)C(=O)N1CCCC[C@@H]1C(=O)N[C@H](Cc1ccccc1)CO2 [Example 567, (7S,11S,17aR,20R)-20-benzyl-N-(2-(5-cyclopropyl-1,2,4-oxadiazol-3-yl)ethyl)-11-isobutyl-4-methoxy-2,10-dimethyl-5,9,12,18-tetraoxo-5,6,7,8,9,10,11,12,15,16,17,17a,18,19,20,21-hexadecahydro-14H-dipyrido[2,1-f:3′,4′-p][1]oxa[4,7,10,14]tetraazacycloheptadecine-7-carboxamide]	384	307

Further molecules by falling EC50, results first:

EC50 [nM]	Emax [%]	SMILES
703	278	COCC[C@@H]1C(=O)N[C@H](Cc2ccccc2)COc2cnc3ccccc3c2C(=O)N[C@H](C(=O)NCCc2cc(C)no2)CC(=O)N(C)[C@@H](CC(C)C)C(=O)N1C [Example 566, (3S,7S,10R,13R)-13-benzyl-7-isobutyl-10-(2-methoxyethyl)-6,9-dimethyl-N-(2-(3-methylisoxazol-5-yl)ethyl)-1,5,8,11-tetraoxo-1,2,3,4,5,6,7,8,9,10,11,12,13,14-tetradecahydro-[1]oxa[4,7,10,14]tetraazacycloheptadecino[17,16-c]quinoline-3-carboxamide]
391	238	COc1nc(C)cc2c1C(=O)N[C@H](C(=O)NCCc1cc(C(F)(F)F)no1)CC(=O)N(C)[C@@H](CC(C)C)C(=O)N1CCCC[C@@H]1C(=O)N[C@H](Cc1ccccc1)CO2 [Example 568, (7S,11S,17aR,20R)-20-benzyl-11-isobutyl-4-methoxy-2,10-dimethyl-5,9,12,18-tetraoxo-N-(2-(3-(trifluoromethyl)isoxazol-5-yl)ethyl)-5,6,7,8,9,10,11,12,15,16,17,17a,18,19,20,21-hexadecahydro-14H-dipyrido[2,1-f:3′,4′-p][1]oxa[4,7,10,14]tetraazacycloheptadecine-7-carboxamide]
374	323	COc1nccc2c1C(=O)N[C@H](C(=O)NCCc1cc(C)no1)CC(=O)N(C)[C@@H](CC(C)C)C(=O)N1CCN(CC(C)C)C[C@@H]1C(=O)N[C@H](Cc1ccccc1)CO2 [Example 570, (7S,11S,20R,22aR)-20-benzyl-2,7-diisobutyl-14-methoxy-8-methyl-N-(2-(3-methylisoxazol-5-yl)ethyl)-6,9,13,22-tetraoxo-1,3,4,6,7,8,9,10,11,12,13,19,20,21,22,22a-hexadecahydro-2H-pyrazino[2,1-f]pyrido[3,4-p][1]oxa[4,7,10,14]tetraazacycloheptadecine-11-carboxamide]
